Laboratory results published in patent publication US20240246942A1, “KINASE INHIBITORS FOR THE TREATMENT OF NEURODEGENERATIVE DISEASES” (priority 2020, published 2024).

Assays:
Assay in all cases: biochemical
[1] = molecular target: T1, panel of 374 wild-type kinases (Homo sapiens, UniProt Q13557); details: read-out: % Enzyme Activity (relative to DMSO controls), CAMK2d
T1 construct: purchased Reaction Biology Corporation

[2] = molecular target: T2, panel of 374 wild-type kinases (Homo sapiens, UniProt P53671); details: read-out: % Enzyme Activity (relative to DMSO controls), LIMK2
T2 construct: purchased Reaction Biology Corporation

[3] = molecular target: T3, panel of 374 wild-type kinases (Homo sapiens, UniProt Q13237); details: read-out: % Enzyme Activity (relative to DMSO controls), kinase PKG2/PRKG2
T3 construct: purchased Reaction Biology Corporation
T3 sequence (Q13237 1-762): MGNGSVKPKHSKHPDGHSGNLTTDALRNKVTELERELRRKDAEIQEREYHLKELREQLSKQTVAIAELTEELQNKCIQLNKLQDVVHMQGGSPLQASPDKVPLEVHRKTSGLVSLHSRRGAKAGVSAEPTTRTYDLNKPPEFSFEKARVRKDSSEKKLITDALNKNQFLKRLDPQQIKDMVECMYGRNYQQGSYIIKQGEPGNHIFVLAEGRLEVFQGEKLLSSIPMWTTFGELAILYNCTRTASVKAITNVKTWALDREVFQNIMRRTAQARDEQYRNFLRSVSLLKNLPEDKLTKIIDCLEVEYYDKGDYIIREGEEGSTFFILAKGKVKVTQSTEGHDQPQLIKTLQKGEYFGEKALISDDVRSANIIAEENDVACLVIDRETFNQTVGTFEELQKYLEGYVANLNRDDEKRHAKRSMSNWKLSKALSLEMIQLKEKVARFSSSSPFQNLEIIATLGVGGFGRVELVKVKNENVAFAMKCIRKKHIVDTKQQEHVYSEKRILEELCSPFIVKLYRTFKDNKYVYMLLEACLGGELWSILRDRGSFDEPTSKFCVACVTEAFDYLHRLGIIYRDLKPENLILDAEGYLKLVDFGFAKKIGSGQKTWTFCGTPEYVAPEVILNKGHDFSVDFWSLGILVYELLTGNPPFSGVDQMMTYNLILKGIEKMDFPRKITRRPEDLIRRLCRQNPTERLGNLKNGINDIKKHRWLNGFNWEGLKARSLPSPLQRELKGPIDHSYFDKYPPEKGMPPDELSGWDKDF

[4] = molecular target: T4, panel of 374 wild-type kinases (Homo sapiens, UniProt P49841); details: read-out: % Enzyme Activity (relative to DMSO controls), GSK3b
T4 construct: purchased Reaction Biology Corporation

[5] = molecular target: T5, panel of 374 wild-type kinases (Homo sapiens, UniProt Q9UIK4); details: read-out: % Enzyme Activity (relative to DMSO controls), DAPK2
T5 construct: purchased Reaction Biology Corporation

[6] = molecular target: T6, panel of 374 wild-type kinases (Homo sapiens, UniProt Q13627); details: read-out: % Enzyme Activity (relative to DMSO controls), DYRK1/DYRK1A
T6 construct: purchased Reaction Biology Corporation

[7] = molecular target: T7, panel of 374 wild-type kinases (Homo sapiens, UniProt P15735); details: read-out: % Enzyme Activity (relative to DMSO controls), kinase PHKg2
T7 construct: purchased Reaction Biology Corporation
T7 sequence (P15735 1-406): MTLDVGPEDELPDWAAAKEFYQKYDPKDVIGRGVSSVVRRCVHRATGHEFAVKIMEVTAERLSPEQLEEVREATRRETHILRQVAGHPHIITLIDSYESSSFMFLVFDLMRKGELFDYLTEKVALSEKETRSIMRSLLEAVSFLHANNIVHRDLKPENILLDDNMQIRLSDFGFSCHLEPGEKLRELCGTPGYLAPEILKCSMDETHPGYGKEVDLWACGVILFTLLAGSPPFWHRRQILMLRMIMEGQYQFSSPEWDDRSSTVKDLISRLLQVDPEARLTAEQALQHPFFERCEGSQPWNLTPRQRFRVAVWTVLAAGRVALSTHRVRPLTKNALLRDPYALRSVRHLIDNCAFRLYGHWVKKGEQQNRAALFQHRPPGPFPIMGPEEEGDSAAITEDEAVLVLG

[8] = molecular target: T8, panel of 374 wild-type kinases (Homo sapiens, UniProt Q86UX6); details: read-out: % Enzyme Activity (relative to DMSO controls), kinase STK32C/YANK3
T8 construct: purchased Reaction Biology Corporation

[9] = molecular target: T9, panel of 374 wild-type kinases (Homo sapiens, UniProt P78368); details: read-out: % Enzyme Activity (relative to DMSO controls), CK1g2
T9 construct: purchased Reaction Biology Corporation

[10] = molecular target: T10, panel of 374 wild-type kinases (Homo sapiens, UniProt P22694); details: read-out: % Enzyme Activity (relative to DMSO controls), kinase PKAcb
T10 construct: purchased Reaction Biology Corporation

[11] = molecular target: T11, panel of 374 wild-type kinases (Homo sapiens, UniProt Q16288); details: for remaining activity at 5 µM: read-out: % Enzyme Activity (relative to DMSO controls), kinase TRKC
T11 construct: purchased Reaction Biology Corporation

[12] = molecular target: T12, panel of 374 wild-type kinases (Homo sapiens, UniProt Q6P5Z2); details: read-out: % Enzyme Activity (relative to DMSO controls), kinase PKN3/PRK3
T12 construct: purchased Reaction Biology Corporation

[13] = molecular target: T13, panel of 374 wild-type kinases (Homo sapiens, UniProt O94921); details: read-out: % Enzyme Activity (relative to DMSO controls), CDK14/cyclin Y (PFTK1)
T13 construct: purchased Reaction Biology Corporation

[14] = molecular target: T14, panel of 374 wild-type kinases (Homo sapiens, UniProt P05129); details: read-out: % Enzyme Activity (relative to DMSO controls), kinase PKCg
T14 construct: purchased Reaction Biology Corporation

T2 sequence (P53671 whole entry): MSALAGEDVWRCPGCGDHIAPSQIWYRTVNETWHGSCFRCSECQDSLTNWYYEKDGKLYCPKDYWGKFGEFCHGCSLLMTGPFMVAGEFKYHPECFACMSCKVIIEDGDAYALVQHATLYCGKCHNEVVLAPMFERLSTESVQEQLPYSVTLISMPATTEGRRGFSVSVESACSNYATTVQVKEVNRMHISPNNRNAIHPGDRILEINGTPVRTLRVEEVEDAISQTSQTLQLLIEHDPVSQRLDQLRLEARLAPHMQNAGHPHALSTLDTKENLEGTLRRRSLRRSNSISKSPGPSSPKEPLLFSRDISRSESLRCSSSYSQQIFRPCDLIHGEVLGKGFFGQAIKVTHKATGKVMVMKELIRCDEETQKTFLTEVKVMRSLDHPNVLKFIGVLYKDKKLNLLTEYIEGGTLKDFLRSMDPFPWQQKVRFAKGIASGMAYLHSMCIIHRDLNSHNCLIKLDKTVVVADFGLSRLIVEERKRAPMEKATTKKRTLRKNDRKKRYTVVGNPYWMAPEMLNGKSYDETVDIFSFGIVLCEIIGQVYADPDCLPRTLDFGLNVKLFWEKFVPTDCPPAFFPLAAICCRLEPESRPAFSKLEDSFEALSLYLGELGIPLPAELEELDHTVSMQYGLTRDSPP
T9 sequence (P78368 whole entry): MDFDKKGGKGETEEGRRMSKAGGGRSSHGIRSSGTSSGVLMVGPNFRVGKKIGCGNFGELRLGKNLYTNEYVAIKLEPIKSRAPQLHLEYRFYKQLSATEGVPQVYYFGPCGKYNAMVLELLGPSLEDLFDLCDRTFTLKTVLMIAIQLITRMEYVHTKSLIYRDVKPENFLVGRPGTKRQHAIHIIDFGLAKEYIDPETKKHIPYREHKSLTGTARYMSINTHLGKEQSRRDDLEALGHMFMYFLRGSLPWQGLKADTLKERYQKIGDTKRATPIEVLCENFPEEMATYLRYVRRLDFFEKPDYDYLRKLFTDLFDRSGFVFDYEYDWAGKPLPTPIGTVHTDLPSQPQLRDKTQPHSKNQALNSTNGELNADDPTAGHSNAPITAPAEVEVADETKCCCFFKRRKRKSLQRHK
T4 sequence (P49841 whole entry): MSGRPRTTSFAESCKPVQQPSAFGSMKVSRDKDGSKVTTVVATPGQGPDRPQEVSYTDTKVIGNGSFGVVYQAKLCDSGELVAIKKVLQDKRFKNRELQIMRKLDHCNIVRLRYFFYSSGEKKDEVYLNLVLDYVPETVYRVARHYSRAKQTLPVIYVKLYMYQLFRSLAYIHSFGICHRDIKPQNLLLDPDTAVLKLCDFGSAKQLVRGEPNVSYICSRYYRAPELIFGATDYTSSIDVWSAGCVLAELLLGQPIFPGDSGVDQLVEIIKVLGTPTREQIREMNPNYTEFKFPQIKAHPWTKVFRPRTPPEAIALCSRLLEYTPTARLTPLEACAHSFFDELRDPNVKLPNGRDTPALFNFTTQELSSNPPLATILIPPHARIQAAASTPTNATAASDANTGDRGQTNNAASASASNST
T11 sequence (Q16288 32-839): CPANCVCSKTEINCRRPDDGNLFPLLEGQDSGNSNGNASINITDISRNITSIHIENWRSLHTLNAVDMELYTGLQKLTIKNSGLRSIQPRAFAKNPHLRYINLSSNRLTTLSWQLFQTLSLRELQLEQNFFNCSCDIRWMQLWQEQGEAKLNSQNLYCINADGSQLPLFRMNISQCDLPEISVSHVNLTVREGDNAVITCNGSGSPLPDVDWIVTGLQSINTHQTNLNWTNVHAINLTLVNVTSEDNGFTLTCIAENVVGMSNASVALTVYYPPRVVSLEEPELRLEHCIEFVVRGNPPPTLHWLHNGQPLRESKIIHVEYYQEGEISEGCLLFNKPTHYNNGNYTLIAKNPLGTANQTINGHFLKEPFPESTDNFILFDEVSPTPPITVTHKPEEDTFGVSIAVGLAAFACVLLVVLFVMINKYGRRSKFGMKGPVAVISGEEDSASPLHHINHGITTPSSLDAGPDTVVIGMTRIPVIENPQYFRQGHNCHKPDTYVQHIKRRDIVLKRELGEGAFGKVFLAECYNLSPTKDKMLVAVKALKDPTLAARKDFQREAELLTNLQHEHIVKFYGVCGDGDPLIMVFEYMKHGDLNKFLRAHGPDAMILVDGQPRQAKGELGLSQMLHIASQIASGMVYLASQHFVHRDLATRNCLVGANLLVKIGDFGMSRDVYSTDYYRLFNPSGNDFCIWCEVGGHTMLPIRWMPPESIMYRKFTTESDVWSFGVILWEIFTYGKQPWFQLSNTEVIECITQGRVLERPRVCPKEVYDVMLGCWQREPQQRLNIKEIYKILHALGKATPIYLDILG
T12 sequence (Q6P5Z2 whole entry): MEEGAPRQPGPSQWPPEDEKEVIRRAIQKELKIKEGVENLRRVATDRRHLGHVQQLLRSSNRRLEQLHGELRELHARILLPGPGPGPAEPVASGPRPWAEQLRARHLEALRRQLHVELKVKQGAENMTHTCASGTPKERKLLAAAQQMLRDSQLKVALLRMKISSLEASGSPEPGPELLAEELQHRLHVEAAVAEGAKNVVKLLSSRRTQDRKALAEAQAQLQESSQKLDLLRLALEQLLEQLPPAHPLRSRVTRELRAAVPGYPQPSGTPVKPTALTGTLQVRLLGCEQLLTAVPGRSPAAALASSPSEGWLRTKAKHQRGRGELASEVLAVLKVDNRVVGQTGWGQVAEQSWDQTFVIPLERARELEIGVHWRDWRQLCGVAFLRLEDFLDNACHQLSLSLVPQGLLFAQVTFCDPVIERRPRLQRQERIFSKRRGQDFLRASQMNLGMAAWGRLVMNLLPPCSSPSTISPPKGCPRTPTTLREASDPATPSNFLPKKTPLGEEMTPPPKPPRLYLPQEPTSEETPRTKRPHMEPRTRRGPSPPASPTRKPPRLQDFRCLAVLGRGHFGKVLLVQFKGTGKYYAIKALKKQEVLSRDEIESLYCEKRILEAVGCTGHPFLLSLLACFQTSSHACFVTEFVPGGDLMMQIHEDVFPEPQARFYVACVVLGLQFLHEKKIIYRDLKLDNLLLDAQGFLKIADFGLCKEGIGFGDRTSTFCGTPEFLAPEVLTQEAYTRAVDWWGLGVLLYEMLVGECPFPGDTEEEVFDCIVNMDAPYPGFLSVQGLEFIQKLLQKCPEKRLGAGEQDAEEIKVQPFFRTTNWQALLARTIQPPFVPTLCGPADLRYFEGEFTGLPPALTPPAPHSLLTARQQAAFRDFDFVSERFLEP
T13 sequence (O94921 whole entry): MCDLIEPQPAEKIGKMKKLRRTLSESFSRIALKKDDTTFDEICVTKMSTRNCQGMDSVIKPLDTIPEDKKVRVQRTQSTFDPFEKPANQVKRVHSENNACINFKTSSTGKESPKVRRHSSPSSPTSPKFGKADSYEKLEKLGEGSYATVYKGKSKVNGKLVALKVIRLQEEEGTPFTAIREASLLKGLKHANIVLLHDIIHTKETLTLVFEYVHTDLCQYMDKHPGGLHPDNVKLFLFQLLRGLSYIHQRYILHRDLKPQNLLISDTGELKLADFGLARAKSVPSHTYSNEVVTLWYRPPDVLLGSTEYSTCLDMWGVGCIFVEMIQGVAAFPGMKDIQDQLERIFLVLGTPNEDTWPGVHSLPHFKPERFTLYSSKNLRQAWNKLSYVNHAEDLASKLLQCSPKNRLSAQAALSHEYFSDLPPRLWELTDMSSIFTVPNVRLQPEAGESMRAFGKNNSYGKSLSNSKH
T5 sequence (Q9UIK4 whole entry): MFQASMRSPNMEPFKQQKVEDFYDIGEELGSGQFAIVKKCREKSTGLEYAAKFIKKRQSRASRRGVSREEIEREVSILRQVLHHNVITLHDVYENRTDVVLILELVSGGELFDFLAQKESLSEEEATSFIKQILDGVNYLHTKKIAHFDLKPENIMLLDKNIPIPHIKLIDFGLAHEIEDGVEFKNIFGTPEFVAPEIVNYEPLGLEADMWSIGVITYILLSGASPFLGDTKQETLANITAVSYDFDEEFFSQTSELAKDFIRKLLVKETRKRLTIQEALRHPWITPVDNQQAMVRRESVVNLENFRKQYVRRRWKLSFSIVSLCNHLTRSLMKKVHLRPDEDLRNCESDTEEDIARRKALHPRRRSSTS

SMILES | remaining activity at 5 µM [1] [%] | remaining activity at 5 µM [2] [%] | remaining activity at 5 µM [3] [%] | remaining activity at 5 µM [4] [%] | remaining activity at 5 µM [5] [%] | remaining activity at 5 µM [6] [%] | remaining activity at 5 µM [7] [%] | remaining activity at 5 µM [8] [%] | remaining activity at 5 µM [9] [%] | remaining activity at 5 µM [10] [%] | remaining activity at 5 µM [11] [%] | remaining activity at 5 µM [12] [%] | remaining activity at 5 µM [13] [%] | remaining activity at 5 µM [14] [%] | also measured
O=C(Nc1cnn(-c2csc(C(=O)NC3COC3)c2)c1)Nc1ccccc1Cl [Compound 17, 4-(4-(3-(2-chlorophenyl)ureido)-1H-pyrazol-1-yl)-N-(oxetan-3-yl)thiophene-2-carboxamide] | 103 | 96.8 | 101 | 95 | 103 | 86 | 101 | 113 | 98.5 | 99 | 64.3 | 92.5 | 107 | 98 | 
Cc1sc(C(=O)NC2COC2)cc1-n1cc(NC(=O)Nc2c(F)cccc2Cl)cn1 [Compound 27, 4-(4-(3-(2-chloro-6-fluorophenyl)ureido)-1H-pyrazol-1-yl)-5-methyl-N-(oxetan-3-yl)thiophene-2-carboxamide] |  |  |  |  |  |  |  |  |  |  |  |  |  |  | remaining activity at 10 µM ([1]; 10 uM): 91.3%; remaining activity at 10 µM ([2]; 10 uM): 113%; remaining activity at 10 µM ([3]; 10 uM): 100%; remaining activity at 10 µM ([4]; 10 uM): 94.9%; remaining activity at 10 µM ([5]; 10 uM): 99.5%; remaining activity at 10 µM ([6]; 10 uM): 95.5%; remaining activity at 10 µM ([7]; 10 uM): 88.5%; remaining activity at 10 µM ([8]; 10 uM): 112%; remaining activity at 10 µM ([9]; 10 uM): 104%; remaining activity at 10 µM ([10]; 10 uM): 104%; remaining activity at 10 µM ([11]; kinase TRKC, 10 uM, read-out: % Enzyme Activity (relative to DMSO controls)): 86%; remaining activity at 10 µM ([12]; 10 uM): 98.6%; remaining activity at 10 µM ([13]; 10 uM): 100%; remaining activity at 10 µM ([14]; 10 uM): 102%
O=C(Nc1cnn(-c2csc(C(=O)NC3COC3)c2)c1)Nc1c(F)cccc1Cl [Compound 25, 4-(4-(3-(2-chloro-6-fluorophenyl)ureido)-1H-pyrazol-1-yl)-N-(oxetan-3-yl)thiophene-2-carboxamide] | 93.5 | 94 | 101 | 95.7 | 102 | 75.1 | 131 | 90.7 | 90.2 | 98.3 | 38.6 | 76.2 | 110 | 98.3 | 
